Results from US20060217456A1, “Non-toxic coating composition, methods of use thereof and articles protected from attachment of biofouling organisms” (priority 2003, published 2006).
≈ marks a conversion by molar mass, not a printed value. Where two headings read alike, the source gives them in different places.

Key:
[1] = test system: cyprid stage larvae of the barnacle, Balanus amphitrite Darwin; conditions: single compound; 28° C., 9 hours; see WO 01/95718; cited from earlier work
[2] = test system: cyprid stage larvae of the barnacle, Balanus amphitrite Darwin; assay: Barnacle settlement assay (cyprid larvae in seawater dishes); type: in vivo; conditions: single compound, 28° C., 9 hours; for EC50: Amphibalanus amphitrite, read-out: EC50 (concentration inhibiting settlement of 50% of cyprid larvae)
Description: Adults of the barnacle, Balanus amphitrite Darwin, were collected from the Sacred Heart Marine Research Center at St. Mary's College in Tuticorin, India. The barnacles were crushed and the nauplius stage larvae were collected for culture to the cyprid stage following the method of Rittschof et al., J. Exp. Mar. Biol. Ecol., 82:131-146 (1984). The cyprid is the stage at which the barnacle larva is competent to attach to surfaces. Upon attachment to a surface, the larva then undergoes metamorphosis into a barnacle.
Barnacle settlement assays were undertaken using the method described previously by Rittschof et al., J. Chem. Ecol., 11: 551-563 (1985). Briefly, Falcon 50×9 mm plastic petri dishes were filled with 5 ml of filtered seawater at salinity of 33-35 parts per thousand (ppt) and into which 3-day old cyprid stage larvae were added. Menthol and/or isopulegol and/or compounds listed under ii) a) to f), above, were introduced at various concentrations into the dishes containing seawater. Controls were represented by those dishes in which no test compound were added. After incubation at 28° C. for 9 hours, the dishes were examined under a dissecting microscope to determine if there was any mortality. The larvae were then killed with 10% formalin and the number of attached and unattached larvae were counted. Settlement data were expressed as the percentage of the larvae attached to the bottom of the dish.
The settlement assay was used to determine the effective concentration of a number of different compounds listed under ii) a) to f), above. The effective concentration (EC50) is that concentration which inhibited the settlement of fifty percent (50%) of the cyprid stage of the barnacle larvae present in a test sample. The racemic […] compounds are denoted with the prefix rac-.

[3] = test system: barnacle, Balanus amphitrite communis; assay: Marine paint panel immersion test, barnacles attached to painted iron panels; conditions: cuprous oxide marine paint on iron panels, submerged 78 weeks, Bitac Cove; control = 100
Description: A floating platform was constructed using layers of bamboo and styrofoam floats. The platform was designed with holders to accommodate test panels measuring 4 inches×12 inches×0.25 inches (1 inch=2.54 cm). A first experimental paint was prepared, containing a biocidally effective amount of cuprous oxide and no other biocide which was used as the control. This composition consisted of 40 parts by weight of cuprous oxide, 10 parts by weight of iron oxide red, 5 parts by weight of xylene, 10 parts by weight of butyl alcohol, 5 parts by weight polyamide resin, 6 parts by weight of plasticizer. To this composition was added a combination of 0.5% by weight of rac-isopulegol, 0.25% by weight of (−)-menthol and 0.25% by weight of 1-menthol propyleneglycol carbonate (Composition A). A second paint composition was prepared from the same marine paint vehicle containing cuprous oxide, to which was added 2% by weight of (−)-menthol (Composition B). A third formulation was made from the same cuprous oxide-containing marine paint vehicle, to which was added 2% by weight of rac-isopulegol (Composition C). A fourth formulation was made from the same cuprous oxide-containing marine paint vehicle, to which was added 2% by weight of 1-menthol propyleneglycol carbonate (Composition D). Solid iron panels having the above-mentioned dimensions were painted with the paint formulations thus prepared, placed in the holders in the floating platform and submerged continuously near the center of Bitac Cove in San Dionisio Bay (Philippines) for a period of 78 weeks. The panels were examined for a few minutes every three months and immediately resubmerged after photography. After 78 weeks, the panels were removed and inspected. The numbers of barnacles attached to the panels were counted. The major fouling organisms included the barnacle, Balanus amphitrite communis, and the rock oyster, Crossostrea cuculata.

Compound	EC50 (concentration inhibiting settlement of 50% of cyprid larvae) [1]	EC50 (concentration inhibiting settlement of 50% of cyprid larvae) [2]	other results
(−)-menthone [reference compound]	0.001 (see WO 01/95718) mg/ml		
CC(C)[C@@H]1CC[C@@H](C)C[C@@]12OCC(CO)O2 (stereo partly drawn) [menthone glycerin acetal]			EC50 [2]: 0.00052 µg/mL (≈ 0.00228 µM)
(−)-isopulegol	8.8 * 10^−5 (see WO 01/95718) mg/ml		
C=C(C)[C@H]1CC=C(C)CC1 [d-limonene, reference compound]		0.029 µg/mL	
CC1CCC(C(C)C)C(O)C1 (stereo not drawn) [1R, 2S, 5R-(−)-menthol (=l-menthol), 1R, 2S, 5R-(−)-menthol]	4 * 10^−3 (see WO 01/95718) mg/ml		% Settlement [3]: 12.2%
CC1CCC(C(C)C)C2(C1)OCC(CO)O2 (racemic) [rac-menthone glycerin acetal]		0.049 µg/mL	
CC1CC[C@H](C(C)C)[C@@H](O)C1 (stereo partly drawn) [1S, 2R, 5S-(+)-menthol, reference compound]	0.1 (see WO 01/95718) mg/ml		
CC(O)C(=O)O[C@@H]1C[C@H](C)CC[C@H]1C(C)C (mixture of isomers) [I-menthyl lactate, 1-menthyllactate]			EC50 [2]: 0.002 µg/mL
CC1CCC(C(C)C)C(O)C1 (racemic) [rac-menthol]	0.1 (see WO 01/95718) mg/ml		
l-menthyl propyleneglycol carbonate		0.0022 µg/mL	% Settlement [3]: 23.4%
C=C(C)[C@@H]1CC[C@@H](C)C[C@H]1O (racemic) [rac-isopulegol]		0.029 µg/mL	% Settlement [3]: 16.1%
COC1CC(C)CCC1C(C)C (stereo not drawn) [menthylmethylether, reference compound]			EC50 [2]: 0.11 µg/mL (≈ 0.646 µM)
